Assays:
Format in all cases: cell-based
[1] = biological target: T1, CFTR (Homo sapiens, UniProt P13569, DEL508-508); test: HBE2 Assay: Ussing chamber assay of CFTR-mediated short-circuit currents in F508del/MF-HBE cells with 44 nM (6R,12R)-17-amino-12-methyl-6,15-bis(trifluoromethyl)-13,19-dioxa-3,4,18-triazatricyclo[12.3.1.12,5]nonadeca-1(18),2,4,14,16-pentaen-6-ol; details: 3 μM with 44 nM (6R,12R)-17-amino-12-methyl-6,15-bis(trifluoromethyl)-13,19-dioxa-3,4,18-triazatricyclo[12.3.1.12,5]nonadeca-1(18),2,4,14,16-pentaen-6-ol, 18-24 hours, 20% human serum
T1 construct: endogenous in cells; host or cells: primary human bronchial epithelial cells, F508del/MF genotype
T1 sequence (P13569 with tags, fused parts or gaps DEL508-508): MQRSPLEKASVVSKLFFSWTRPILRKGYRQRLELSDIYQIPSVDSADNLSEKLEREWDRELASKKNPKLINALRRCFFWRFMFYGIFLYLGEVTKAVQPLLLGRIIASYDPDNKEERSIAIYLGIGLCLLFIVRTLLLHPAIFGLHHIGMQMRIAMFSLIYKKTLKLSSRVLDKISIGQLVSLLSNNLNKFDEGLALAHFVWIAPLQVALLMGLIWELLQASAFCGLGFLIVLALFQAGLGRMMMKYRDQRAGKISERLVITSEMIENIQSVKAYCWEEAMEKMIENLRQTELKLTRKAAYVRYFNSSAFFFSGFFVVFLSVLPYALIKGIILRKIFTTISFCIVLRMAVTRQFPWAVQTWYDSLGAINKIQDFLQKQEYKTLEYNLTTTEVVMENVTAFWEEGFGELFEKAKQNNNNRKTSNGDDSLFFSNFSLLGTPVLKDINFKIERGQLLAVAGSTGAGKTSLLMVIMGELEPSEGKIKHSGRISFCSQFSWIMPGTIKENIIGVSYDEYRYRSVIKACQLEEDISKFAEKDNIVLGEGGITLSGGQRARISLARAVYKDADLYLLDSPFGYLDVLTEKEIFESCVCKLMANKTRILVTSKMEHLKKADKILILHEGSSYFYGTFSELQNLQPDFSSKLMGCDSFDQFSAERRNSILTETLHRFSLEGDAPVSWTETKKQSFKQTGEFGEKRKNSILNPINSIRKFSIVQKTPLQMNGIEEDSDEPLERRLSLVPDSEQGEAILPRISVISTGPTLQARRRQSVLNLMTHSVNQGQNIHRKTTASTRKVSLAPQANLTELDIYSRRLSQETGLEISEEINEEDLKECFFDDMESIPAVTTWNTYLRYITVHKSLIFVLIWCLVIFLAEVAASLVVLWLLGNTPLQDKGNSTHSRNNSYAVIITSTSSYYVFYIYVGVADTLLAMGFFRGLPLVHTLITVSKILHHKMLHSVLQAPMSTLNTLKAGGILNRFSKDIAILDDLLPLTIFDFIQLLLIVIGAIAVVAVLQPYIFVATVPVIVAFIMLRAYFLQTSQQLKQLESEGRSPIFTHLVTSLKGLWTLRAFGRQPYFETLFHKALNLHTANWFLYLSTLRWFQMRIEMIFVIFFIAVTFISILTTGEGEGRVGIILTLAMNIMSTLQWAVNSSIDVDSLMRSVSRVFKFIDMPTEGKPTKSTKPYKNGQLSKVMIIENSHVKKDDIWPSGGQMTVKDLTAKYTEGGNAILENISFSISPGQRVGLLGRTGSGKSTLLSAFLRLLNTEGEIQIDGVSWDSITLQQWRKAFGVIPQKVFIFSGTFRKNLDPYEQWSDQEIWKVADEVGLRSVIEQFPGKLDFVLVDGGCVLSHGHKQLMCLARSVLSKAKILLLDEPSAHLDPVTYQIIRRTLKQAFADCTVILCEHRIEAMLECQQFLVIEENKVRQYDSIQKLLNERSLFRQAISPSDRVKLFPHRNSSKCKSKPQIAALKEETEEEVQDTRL
Procedure: Ussing chamber experiments were performed using human bronchial epithelial (HBE) cells derived from CF subjects heterozygous for F508del and a minimal function CFTR mutation (F508del/MF-HBE) and cultured as previously described (Neuberger T, Burton B, Clark H, Van Goor F Methods Mol Biol 2011:741:39-54). After four days the apical media was removed, and the cells were grown at an air liquid interface for >14 days prior to use.
To isolate the CFTR-mediated short-circuit (ISC) current, F508del/MF-HBE grown on Costar® Snapwell™ cell culture inserts were mounted in an Ussing chamber and the transepithelial ISC was measured under voltage-clamp recording conditions (Vhold=0 mV) at 37° C. The basolateral solution contained (in mM) 145 NaCl, 0.83 K2HPO4, 3.3 KH2PO4, 1.2 MgCl2, 1.2 CaCl2), 10 Glucose, 10 HEPES (pH adjusted to 7.4 with NaOH) and the apical solution contained (in mM) 145 NaGluconate, 1.2 MgCl2, 1.2 CaCl2), 10 glucose, 10 HEPES (pH adjusted to 7.4 with NaOH) and 30 μM amiloride to block the epithelial sodium channel. Forskolin (20 μM) was added to the apical surface to activate CFTR, followed by apical addition of a CFTR inhibitor cocktail consisting of BPO, GlyH-101, and CFTR inhibitor 172 (each at 20 μM final assay concentration) to specifically isolate CFTR currents. The CFTR-mediated ISC (μA/cm^2) for each condition was determined from the peak forskolin response to the steady-state current following inhibition.
The activity of the CFTR corrector compounds on the CFTR-mediated ISC was determined in Ussing chamber studies as described above. The F508del/MF-HBE cell cultures were either incubated with the corrector compounds at a range of concentrations in combination with 44 nM (6R,12R)-17-amino-12-methyl-6,15-bis(trifluoromethyl)-13,19-dioxa-3,4,18-triazatricyclo[12.3.1.12,5]nonadeca-1(18),2,4,14,16-pentaen-6-ol or were incubated with the corrector compounds at a single fixed concentration of 1 and 3 μM in combination with 44 nM (6R,12R)-17-amino-12-methyl-6,15-bis(trifluoromethyl)-13,19-dioxa-3,4,18-triazatricyclo[12.3.1.12,5]nonadeca-1(18),2,4,14,16-pentaen-6-ol for 18-24 hours at 37° C. and in the presence of 20% human serum. The concentration of corrector compounds with 44 nM (6R,12R)-17-amino-12-methyl-6,15-bis(trifluoromethyl)-13,19-dioxa-3,4,18-triazatricyclo[12.3.1.12,5]nonadeca-1(18),2,4,14,16-pentaen-6-ol during the 18-24 hours incubations was kept constant throughout the Ussing chamber measurement of the CFTR-mediated ISC to ensure compounds were present throughout the entire experiment.

[2] = biological target: CFTR (Homo sapiens, UniProt P13569); test: Membrane Potential Dye, Enteroid Assay A; details: for EC50: read-out: Ent. A EC50
Chain of CFTR (Homo sapiens, UniProt P13569) (P13569 with tags, fused parts or gaps DEL508-508): as above

[3] = biological target: T2, F508del (Homo sapiens, UniProt P13569, DEL508-508); test: 3T3 Assay: membrane potential optical assay for F508del correctors in NIH 3T3 cells; details: for EC50: F508del corrector assay; for Emax: NIH3T3, F508del corrector assay, read-out: 3T3 Max Activity
T2 construct: expressed in transfected cells; host or cells: NIH3T3 mouse fibroblasts
T2 sequence (P13569 with tags, fused parts or gaps DEL508-508): as above
Description: The assay utilizes fluorescent voltage sensing dyes to measure changes in membrane potential using a fluorescent plate reader (e.g., FLIPR III, Molecular Devices, Inc.) as a readout for increase in functional F508del in NIH 3T3 cells. The driving force for the response is the creation of a chloride ion gradient in conjunction with channel activation by a single liquid addition step after the cells have previously been treated with compounds and subsequently loaded with a voltage sensing dye.
To identify correctors of F508del, a single-addition HTS assay format was developed. This HTS assay utilizes fluorescent voltage sensing dyes to measure changes in membrane potential on the FLIPR III as a measurement for increase in gating (conductance) of F508del in F508del NIH 3T3 cells. The F508del NIH 3T3 cell cultures were incubated with the corrector compounds at a range of concentrations for 18-24 hours at 37° C., and subsequently loaded with a redistribution dye. The driving force for the response is a Cl^− ion gradient in conjunction with channel activation with forskolin in a single liquid addition step using a fluorescent plate reader such as FLIPR III.
Bath Solution #1: (in mM) NaCl 160, KCl 4.5, CaCl2) 2, MgCl2 1, HEPES 10, pH 7.4 with NaOH.
Chloride-free bath solution: Chloride salts in Bath Solution #1 (above) are substituted with gluconate salts.
NIH3T3 mouse fibroblasts stably expressing F508del are used for optical measurements of membrane potential. The cells are maintained at 37° C. in 5% CO2 and 90% humidity in Dulbecco's modified Eagle's medium supplemented with 2 mM glutamine, 10% fetal bovine serum, 1×NEAA, b-ME, 1× pen/strep, and 25 mM HEPES in 175 cm^2 culture flasks. For all optical assays, the cells were seeded at ˜20,000/well in 384-well matrigel-coated plates. For the correction assays, the cells are cultured at 37° C. with and without compounds for 16-24 hours.

| Compound | HBE2 Activity at 3 μM (%) [1] | Ent. A Max Activity [2] | EC50 [2] [nM] | EC50 [3] [nM] | Emax [3] [%] |
| --- | --- | --- | --- | --- | --- |
| Cc1cccc(CCC(C)C)c1-c1nc2nc(c1C)OC[C@@H](CC(C)(C)C)N(Cc1ncc(OC(C)C)cn1)C(=O)c1cccc(c1)S(=O)(=O)N2 (atropisomer, axis not shown; (M)) [Compound 333, (5M,11R)-11-(2,2-Dimethylpropyl)-7-methyl-6-[2-methyl-6-(3-methylbutyl)phenyl]-12-{[5-(propan-2-yloxy)pyrimidin-2-yl]methyl}-9-oxa-2λ^6-thia-3,5,12,19-tetraazatricyclo[12.3.1.14,8]nonadeca-1(17),4(19),5,7,14(18),15-hexaene-2,2,13-trione] | +++ (+++ is >60%) |  |  |  |  |
| Cc1cccc(C)c1-c1nc2nc(c1F)OC[C@@H](CCC(C)(C)C)N(Cc1cnc3cc(C(C)C)n(C)c3n1)C(=O)c1cccc(c1)S(=O)(=O)N2 [Compound 368] | +++ (+++ is >60%) |  |  |  |  |
| Cc1cccc(C)c1-c1nc2nc(c1F)OC[C@@H](CCC(C)(C)C)N(Cc1cncc(N(C)C3CCC3)n1)C(=O)c1cccc(c1)S(=O)(=O)N2 [Compound 365] | +++ (+++ is >60%) |  |  |  |  |
| Cc1cccc(C)c1-c1nc2nc(c1C)OC[C@@H](CC(C)C)N(Cc1cncc(N(C)C3CCC3)n1)C(=O)c1cccc(c1)S(=O)(=O)N2 [Compound 358] | +++ (+++ is >60%) |  |  |  |  |
| CCc1c2nc(nc1-c1ccccc1C(C)C)NS(=O)(=O)c1cccc(c1)NC(=O)c1cccc(c1C)O2 [Compound 15] |  | +++ (+++ is >60%) | < 1000 | < 1000 | > 60 |
| Cc1cccc(CC2CCCCC2)c1-c1nc2nc(c1C)OC[C@@H](CC(C)(C)C)N(Cc1cncc(N(C)C3CCC3)n1)C(=O)c1cccc(c1)S(=O)(=O)N2 [Compound 360] | +++ (+++ is >60%) |  |  |  |  |
| Cc1ccc2cc1Oc1nc(nc(-c3c(C)cccc3C)c1Cl)NS(=O)(=O)c1cccc(c1)NC2=O [Compound 8] |  |  |  | < 1000 | > 60 |
| Cc1cccc(C)c1-c1nc2nc(c1F)OC[C@@H](CCC(C)(C)C)N(Cc1ncc(OC(C)C)cn1)C(=O)c1cccc(c1)S(=O)(=O)N2 [Compound 369] | +++ (+++ is >60%) |  |  |  |  |
| CC(C)=Cc1c(N2C(=O)c3cccc(c3)S(=O)(=O)Nc3nc(c(C)c(-c4c(C)cccc4C)n3)OC[C@H]2CC(C)(C)C)cnn1C [Compound 361, (11R)-6-(2,6-Dimethylphenyl)-11-(2,2-dimethylpropyl)-7-methyl-12-[1-methyl-5-(2-methylprop-1-enyl)pyrazol-4-yl]-2,2-dioxo-9-oxa-2λ^6-thia-3,5,12,19-tetrazatricyclo[12.3.1.14,8]nonadeca-1(18),4(19),5,7,14,16-hexaen-13-one] | +++ (+++ is >60%) |  |  |  |  |
| CCc1c2nc(nc1-c1c(C)c(C)c(C)c(C)c1C)NS(=O)(=O)c1cccc(c1)NC(=O)c1cccc(c1)O2 [Compound 2, 4-Ethyl-9,9-dioxo-5-(2,3,4,5,6-pentamethylphenyl)-2-oxa-9λ^6-thia-6,8,15,23-tetrazatetracyclo[15.3.1.13,7.110,14]tricosa-1(21),3,5,7(23),10,12,14(22),17,19-nonaen-16-one] |  |  |  | < 1000 | > 60 |

Continued, values first:

| HBE2 Activity at 3 μM (%) [1] | Ent. A Max Activity [2] | EC50 [2] [nM] | EC50 [3] [nM] | Emax [3] [%] | Compound |
| --- | --- | --- | --- | --- | --- |
|  | ++ (++ is 30-60%) | < 1000 | < 1000 | > 60 | CCc1c2nc(nc1-c1ccccc1C1CCC1)NS(=O)(=O)c1cccc(c1)NC(=O)c1cccc(c1)O2 [Compound 1, 5-(2-Cyclobutylphenyl)-4-ethyl-9,9-dioxo-2-oxa-9λ^6-thia-6,8,15,23-tetrazatetracyclo[15.3.1.13,7.110,14]tricosa-1(21),3,5,7(23),10,12,14(22),17,19-nonaen-16-one] |
|  | + (+ is <30%) |  | < 1000 | > 60 | CCc1c2nc(nc1-c1ccccc1OC(C)C)NS(=O)(=O)c1cccc(c1)NC(=O)c1cccc(c1)O2 [Compound 29] |
|  | +++ (+++ is >60%) | < 1000 | < 1000 | > 60 | CCc1c2nc(nc1-c1ccccc1CC(C)C)NS(=O)(=O)c1cccc(c1)NC(=O)c1cccc(c1)O2 [Compound 3, 4-Ethyl-5-(2-isobutylphenyl)-9,9-dioxo-2-oxa-9λ^6-thia-6,8,15,23-tetrazatetracyclo[15.3.1.13,7.110,14]tricosa-1(21),3,5,7(23),10,12,14(22),17,19-nonaen-16-one] |
|  | + (+ is <30%) | 1000 to 3000 | < 1000 | > 60 | CCc1c2nc(nc1-c1ccccc1OCC(C)C)NS(=O)(=O)c1cccc(c1)NC(=O)c1cccc(c1)O2 [Compound 26] |
|  | +++ (+++ is >60%) | < 1000 | < 1000 | > 60 | CCc1c2nc(nc1-c1ccccc1C(C)C)NS(=O)(=O)c1cccc(c1)NC(=O)c1cccc(c1)O2 [Compound 16] |
|  |  |  |  | < 30 | CCc1c2nc(nc1-c1ccc([S+](C)[O-])cc1)NS(=O)(=O)c1cccc(c1)NC(=O)c1cccc(c1)O2 (centres unmarked) [Compound 18] |
|  |  |  | < 1000 | > 60 | CCc1c2nc(nc1-c1ccccc1COCCOC)NS(=O)(=O)c1cccc(c1)NC(=O)c1cccc(c1)O2 [Compound 11] |
|  | +++ (+++ is >60%) | < 1000 | < 1000 | > 60 | CCc1c2nc(nc1-c1ccccc1C(C)C)NS(=O)(=O)c1cccc(c1)NC(=O)c1cc(ccc1Cl)O2 [Compound 5, 18-Chloro-4-ethyl-5-[2-(propan-2-yl)phenyl]-2-oxa-9λ^6-thia-6,8,15,23-tetraazatetracyclo[15.3.1.13,7.110,14]tricosa-1(20),3(23),4,6,10(22),11,13,17(21),18-nonaene-9,9,16-trione] |
|  |  |  |  | < 30 | CCc1c2nc(nc1-c1ccccc1CN(C)C)NS(=O)(=O)c1cccc(c1)NC(=O)c1cccc(c1)O2 [Compound 10] |
|  | +++ (+++ is >60%) | 1000 to 3000 | < 1000 | > 60 | CCc1c2nc(nc1-c1c(C)cccc1C)NS(=O)(=O)c1cccc(c1)NC(=O)c1cccc(c1)O2 [Compound 4, 5-(2,6-Dimethylphenyl)-4-ethyl-9,9-dioxo-2-oxa-9λ^6-thia-6,8,15,23-tetrazatetracyclo[15.3.1.13,7.110,14]tricosa-1(21),3,5,7(23),10,12,14(22),17,19-nonaen-16-one] |
|  |  |  | < 1000 | > 60 | CCc1c2nc(nc1-c1ccccc1COC)NS(=O)(=O)c1cccc(c1)NC(=O)c1cccc(c1)O2 [Compound 12] |
|  |  |  | < 1000 | > 60 | CCc1c2nc(nc1-c1cccc(C)c1C)NS(=O)(=O)c1cccc(c1)NC(=O)c1cccc(c1)O2 [Compound 17] |
